# Assay results reported in ChEMBL document CHEMBL4049463, “Repurposing Suzuki Coupling Reagents as a Directed Fragment Library Targeting Serine Hydrolases and Related Enzymes” (J Med Chem, 2017).
# Target: Autotaxin (Mus musculus) (UniProt Q9R1E6)
row,SMILES,IC50
1,NCc1cccc(O)c1,1260 µM
2,COc1cccc(B(O)O)c1,20 µM
3,COc1ccc(B(O)O)cc1,5.01 µM
4,OB(O)c1ccc(Cl)cc1,3.16 µM
5,N#Cc1cccc(B(O)O)c1,20 µM
6,CS(=O)(=O)c1ccc(O)cc1,631 µM
7,Oc1ccc(-n2ccnc2)cc1,501 µM
8,Nc1cccc(-c2nnc[nH]2)c1,251 µM
9,CS(=O)(=O)c1ccc(B(O)O)cc1,5.01 µM
10,O=C(O)c1ccc2cc[nH]c2c1,794 µM
11,N#C/C=C/c1cccc(B(O)O)c1,1.58 µM
12,OB(O)c1cccc(O)c1,10 µM
13,N#CCc1cccc(B(O)O)c1,5.01 µM
14,N#Cc1ccc(B(O)O)cc1,5.01 µM
15,OB(O)c1ccc(O)cc1,10 µM
16,Oc1ccc2nonc2c1,200 µM
17,OB(O)c1ccc2nonc2c1,10 µM

# More lines, now with the values ahead:
row,IC50,SMILES
1,0.501 µM,COCCc1ccc(OCc2cccc(B(O)O)c2)cc1
2,3.98 µM,COc1ccccc1B(O)O
3,10 µM,OB(O)c1ccccc1 [PHENYLBORONIC ACID]
4,12.6 µM,OCc1cccc(B(O)O)c1
5,0.316 µM,COc1cc(COc2ccc(B(O)O)cc2Cl)cc(OC)c1
6,1 µM,OB(O)c1ccccc1OCc1cccc(Cl)c1
7,2 µM,OB(O)c1ccc2cc[nH]c2c1

# Target: Autotaxin (Mus musculus, UniProt Q9R1E6)
# Assay: Inhibition of mouse ATX using TG-mTMP as substrate after 2 hrs by fluorometric analysis
row,IC50,SMILES
1,0.02 µM,OB(O)c1ccc(CCCN2CCC(c3nc(O)c(Cc4ccc(Cl)c(Cl)c4)s3)CC2)cc1
2,0.0126 µM,OB(O)c1cccc(CCN2CCN(c3nc(O)c(Cc4ccc(Cl)c(Cl)c4)s3)CC2)c1
3,0.631 µM,OB(O)c1ccccc1CCN1CCN(c2nc(O)c(Cc3ccc(Cl)c(Cl)c3)s2)CC1
